Ends that are not written are not given here. * marks the point of attachment. Myristoyl = CCCCCCCCCCCCCC(=O)*
Tests used:
[1] = test system: DSS-induced Colitis; assay: DSS-induced colitis model; assay type: in vivo; conditions: male C57BL mice, 15 mg/Kilo I.V every 48 hours, DSS 1.25% in drinking water, 7 days, compared with control peptide
Experimental: FIGS. 17A-17C illustrate the use of inhibitory peptide as a potential therapeutic agent in colitis model. 21 male C57BL mice treated (I.V every 48 hours) with either peptide (15 mg/Kilo), scramble peptide (15 mg/Kilo) or DMSO (2%). Colitis was induced using DSS (1.25% in drinking water) and mice were sacrificed 7 days post induction. (A-C). Colitis was evaluated using endoscopic imaging and scored for the number of lesions in the colon and weight of mice.
In vivo experiment: 21 male C57BL mice were weighed then injected (I.V) with either peptide (15 mg/Kilo), scramble peptide (15 mg/Kilo) or DMSO (2%). Twenty-four hours post injection drinking water of the mice was replaced with water containing DSS (1.25%), peptide, scramble peptide or DMSO were injected every forty-eight hours. Mice were sacrificed seven days post replacement of drinking water, and colitis was assessed using endoscopy and weight of mice.

[2] = target: T1, interaction of JNK1/2 and p38α/β with Imp7 (Homo sapiens, UniProt O95373); assay: Co-immunoprecipitation of MAPKs with importins from extracts of treated HeLa cells; assay type: cell-based; conditions: for Imp7/9 interactions of the MAPKs examined (JNK1/2 and p38α/β), Co-IP: HeLa cells, peptide 10 μM applied prior to stimulation, Anisomycin 0.5 μg/ml; for interaction of p38 with Imp7 (CoIP): HeLa cells pre-incubated with modified peptide 2 hours, anisomycin 0.5 μg/ml 15 min
T1 construct: endogenous in cells; host or cells: HeLa
T1 sequence (O95373 whole entry): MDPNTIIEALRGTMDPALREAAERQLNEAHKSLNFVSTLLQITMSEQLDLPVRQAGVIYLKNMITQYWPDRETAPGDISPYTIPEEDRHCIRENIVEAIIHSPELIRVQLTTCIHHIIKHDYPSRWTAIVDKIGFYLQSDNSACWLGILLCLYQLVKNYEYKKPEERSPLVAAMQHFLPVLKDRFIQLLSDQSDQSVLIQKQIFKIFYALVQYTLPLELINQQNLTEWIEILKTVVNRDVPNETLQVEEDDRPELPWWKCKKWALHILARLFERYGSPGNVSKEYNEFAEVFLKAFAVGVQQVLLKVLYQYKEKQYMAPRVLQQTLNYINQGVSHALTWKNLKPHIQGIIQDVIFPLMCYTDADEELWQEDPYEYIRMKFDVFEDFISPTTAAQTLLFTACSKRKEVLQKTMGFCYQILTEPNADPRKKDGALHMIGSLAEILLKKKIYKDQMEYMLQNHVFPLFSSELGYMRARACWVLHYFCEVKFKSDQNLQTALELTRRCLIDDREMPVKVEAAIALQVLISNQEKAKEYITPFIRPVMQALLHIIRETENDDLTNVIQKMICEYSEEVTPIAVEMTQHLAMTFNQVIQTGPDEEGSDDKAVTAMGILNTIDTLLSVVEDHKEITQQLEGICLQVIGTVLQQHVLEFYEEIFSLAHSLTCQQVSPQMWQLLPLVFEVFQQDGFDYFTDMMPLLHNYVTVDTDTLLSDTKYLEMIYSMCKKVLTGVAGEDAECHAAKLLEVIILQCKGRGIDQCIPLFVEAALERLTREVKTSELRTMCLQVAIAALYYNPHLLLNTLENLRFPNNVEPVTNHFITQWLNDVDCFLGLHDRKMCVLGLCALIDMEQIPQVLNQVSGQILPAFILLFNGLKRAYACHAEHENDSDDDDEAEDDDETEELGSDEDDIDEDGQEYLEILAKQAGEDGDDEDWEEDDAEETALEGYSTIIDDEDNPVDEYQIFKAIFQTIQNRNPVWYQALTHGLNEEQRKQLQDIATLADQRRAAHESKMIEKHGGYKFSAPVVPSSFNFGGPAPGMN
Experimental: (§1) HeLa cells were grown on slides to 70% confluence, serum starved (0.1% FBS, 16 hrs), and then either incubated with the inhibitory peptide (Peptide, 10 μM) or scrambled peptide (Scr peptide, 10 μM), cells were then treat with Anisomycin (Anis, 0.5 μg/ml) or left untreated (NT). Cells were fixed, and stained with anti JNK1, JNK2, p38α or p38β Abs as indicated, and DAPI to detect nuclei. The slides were visualized using a fluorescent microscope. […] HeLa cells were grown to 70% confluence, serum starved (0.1% FBS, 16 hrs), and then either incubated with the inhibitory peptide (Peptide, 10 μM), scrambled peptide (Scr peptide, 10 μM), or DMSO, followed by treatment with Anisomycin (Anis, 0.5 μg/ml) or mock control (NT). Cell extracts were then subjected to Co-IP with anti JNK1, JNK2, p38α, p38β Abs. The interacting Imp7 was detected by Western blot with the indicated anti Imps Abs. Amount of IPed MAPKs was detected by the anti JNK1, JNK2, p38α and p38β Abs as indicated.
(A) Myristiolated peptide was modified (replacement of 3 residues to alanin) Myr-KPERYQNLSPVGSGA—SEQ ID NO: 9; Myr-KPERYQNLSPVAAAA—SEQ ID NO: 10. (B) Hela cells were pre-incubated with modified peptide (2 hours) then either stimulated with anisomycin (Anis, 0.5 μg/ml, 15 min) or left untreated. Cell extracts were then subjected to CoIP with anti p38a . The interacting Imp7 or IPed p38 were detected by Western blot with indicated Abs.
Co-Immunoprecipitation: HeLa cells were grown to subconfluency, serum-starved (0.1% FBS for 16 h) and then stimulated or treated with other drugs. Cell extracts were produced as previously described and incubated for 2 hours (4° C., with rotation) with A/G-agarose beads (Santa Cruz Biotechnology) pre-linked with specific Abs (1 hrs, 23° C.). The bound A/G beads were washed three times with ice-cold washing buffer. The IPed beads were then resuspended with 1.5× sample buffer and boiled; the resolved proteins were analyzed by Western blotting with the indicated Abs.
CoIP: Cell extracts were produced and incubated for 2 hr (4° C., with rotation) with A/G-agarose beads pre-linked with specific Abs (1 hr, 23° C.). The bound A/G beads were washed, resuspended (1.5× sample buffer), boiled and subjected to Western blotting.

[3] = test system: JNK1/2 and p38α/β; assay: Immunofluorescence of stimulated nuclear translocation of JNK1/2 and p38α/β in HeLa cells; assay type: cell-based; conditions: for stimuli-dependent nuclear translocation of JNK1/2 and p38α/β: HeLa cells, peptide 10 μM applied prior to stimulation, Anisomycin 0.5 μg/ml
Experimental: FIGS. 2A-2C illustrate that Imp3, 7 and 9 are required for JNK and p38 translocation and induced transcription. (A) Si RNAs of Imp3, 7, 9, but not Imp5, inhibit the stimulated JNK and p38 nuclear translocation. HeLa cells were grown on cover slides to 30% confluence. si RNAs of the indicated Imps and si Control supplied by the company (si Scr, negative control) were then transfected to the cells using Dharmafect according to the manufacturer's instructions. Forty eight hrs after transfection, the cells were serum starved, then either stimulated with Anisomycin (0.5 μg/ml, 15 min), or left untreated (NT) as indicated. The cells were then fixed, stained using the indicated (left) anti MAPK Abs and visualized using a fluorescent microscope. (B) Quantification of JNKs/p38s nuclear localization prior and upon stimulation. Data shown represents mean±S.E. The significance of Imp3 vs. Imp7/Imp9 (*) was p<0.0003. The significance of stimulated Imp3/7/9 vs Scr was p<0.00001 (C) Si RNA of Imp3, 7, 9 inhibit the activation of downstream transcription factor targets of JNKs/p38s. HeLa cells were transfected with si RNAs of the indicated Imps and si control supplied by the manufacturer (si Scr, negative control) using Dharmafect according to the manufacturer instructions. Forty eight hrs after transfection, the cells were serum starved, and then stimulated with Anisomycin (Anis 0.5 μg/ml) for the indicated times or left untreated (NT). Cell extracts were subjected to a Western blot analysis with anti pJUN, pMEF2A, pATF2, indicated Imps, and tubulin Abs.
as §1, with “indicated. […]” for “indicated.”
FIGS. 19A-19C illustrate that myristoylated peptides inhibit the stimulation dependent nuclear translocation of p38. […] The nuclei were detected using DAPI and slides were visualized using a spinning disc confocal microscope (Zeiss, ×100 magnification). […]

[4] = test system: MAPKs; assay: Western blot of stimulation-dependent activation of MAPKs in HeLa cells; assay type: cell-based; conditions: HeLa cells pre-incubated with peptide, Anisomycin 0.5 μg/ml or TPA 250 nM
Experimental: HeLa cells were grown to 70% confluence, serum starved and pre-incubated with either new peptide (NP), peptide or scrambled peptide and then either stimulated with Anisomycin (Anis 0.5 μg/ml), TPA (250 nM) or left untreated (NT). Cell extracts were produced and subjected to Western blot analysis with the indicated Abs.

[5] = listed as 14 amino acid myristoylated peptide

In the case of “Myr-KPERYQNLSPVGSGA (Myristoyl-KPERYQNLSPVGSGA)”, the “DSS-induced Colitis (average weight loss and number of lesions in the colon)” value [1] is reported as “reduced DSS-induced Colitis”.

“Myr-PERYQNLSPVGSGA (Myristoyl-PERYQNLSPVGSGA) [14 amino acid myristoylated peptide based on residues 21-34 of p38α]” was tested, and the “Imp7/9 interactions of the MAPKs examined (JNK1/2 and p38α/β), Co-IP” value (shortened to “Imp7/9 interactions”) [2] was “prevented”, the “Imp7/9 interactions” value [2, 5] was “prevented” and the “Imp7/9 interactions” value ([2]; listed as inhibitory peptide) was “inhibits the interaction”. The “stimuli-dependent nuclear translocation of JNK1/2 and p38α/β” value (shortened to “stimuli-dependent nuclear translocation”) [3] was “prevented the nuclear translocation”, the “stimuli-dependent nuclear translocation” value [3, 5] was “prevented the nuclear translocation” and the “stimuli-dependent nuclear translocation” value ([3]; listed as inhibitory peptide) was “inhibits the stimuli-dependent nuclear translocation”.

With “Myr-KPERYQNLSPVAAAA (Myristoyl-KPERYQNLSPVAAAA) [myristoylated peptide modified by replacement of 3 residues to alanin]” the “interaction of p38 with Imp7 (CoIP)” value [2] was “blocks the interaction”, the “interaction of p38 with Imp7 (CoIP)” value ([2]; listed as newly designed peptide) was “inhibited” and the “stimulation-dependent activation (kinase activity) of MAPKs” value [4] was “without affecting”. For the same substance, the “stimulation-induced nuclear translocation of JNK and p38 MAPKs” value ([3]; HeLa cells pre-incubated with peptide, Anisomycin 0.5 μg/ml 15 min, spinning disc confocal microscope) was “prevented”.
